Measured values taken from ChEMBL document CHEMBL1152560, “Substituted 2-arylbenzothiazoles as kinase inhibitors: hit-to-lead optimization” (Bioorg Med Chem, 2009).

Columns and labels:
[1] = target: CDC42BPA protein (Homo sapiens) (UniProt B9EGA7); test: Residual activity of CDC42BPA at 1 uM by microplate scintillation counting
[2] = target: Dual specificity tyrosine-phosphorylation-regulated kinase 1B (Homo sapiens) (UniProt Q9Y463); test: Residual activity of DYRK1B at 0.1 uM by microplate scintillation counting
[3] = target: T1, Ephrin type-B receptor 2 (Homo sapiens) (UniProt P29323); test: Residual activity of EPHB2 at 10 uM by microplate scintillation counting
T1 sequence (whole entry): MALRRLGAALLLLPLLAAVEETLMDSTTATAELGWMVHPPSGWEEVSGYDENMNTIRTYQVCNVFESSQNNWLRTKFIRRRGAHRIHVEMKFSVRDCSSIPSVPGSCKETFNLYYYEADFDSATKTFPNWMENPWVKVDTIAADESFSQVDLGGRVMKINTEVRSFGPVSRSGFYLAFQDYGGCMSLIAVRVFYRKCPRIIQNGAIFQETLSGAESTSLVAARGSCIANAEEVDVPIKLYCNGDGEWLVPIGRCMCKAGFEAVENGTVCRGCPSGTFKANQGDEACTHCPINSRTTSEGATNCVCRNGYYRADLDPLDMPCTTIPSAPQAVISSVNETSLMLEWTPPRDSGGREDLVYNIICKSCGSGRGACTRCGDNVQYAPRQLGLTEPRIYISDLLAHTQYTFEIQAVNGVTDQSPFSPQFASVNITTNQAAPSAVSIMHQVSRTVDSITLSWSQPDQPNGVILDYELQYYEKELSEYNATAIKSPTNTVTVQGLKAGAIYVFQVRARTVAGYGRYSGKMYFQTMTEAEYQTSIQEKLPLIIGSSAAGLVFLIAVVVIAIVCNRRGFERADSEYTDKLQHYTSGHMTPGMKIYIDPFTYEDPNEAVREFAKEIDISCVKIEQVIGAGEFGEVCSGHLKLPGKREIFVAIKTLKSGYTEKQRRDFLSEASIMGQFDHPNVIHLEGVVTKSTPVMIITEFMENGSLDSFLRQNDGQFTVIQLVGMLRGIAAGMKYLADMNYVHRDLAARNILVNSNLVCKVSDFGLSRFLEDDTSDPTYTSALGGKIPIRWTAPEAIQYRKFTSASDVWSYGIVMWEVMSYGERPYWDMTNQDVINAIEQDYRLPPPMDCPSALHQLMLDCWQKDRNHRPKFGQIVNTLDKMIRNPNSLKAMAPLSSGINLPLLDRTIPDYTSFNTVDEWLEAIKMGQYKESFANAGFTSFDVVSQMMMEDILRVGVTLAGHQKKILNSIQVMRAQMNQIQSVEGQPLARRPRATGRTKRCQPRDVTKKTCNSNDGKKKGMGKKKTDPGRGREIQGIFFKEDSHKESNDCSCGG

[4] = target: CDK1/Cyclin A (Homo sapiens) (UniProt P06493+P20248); test: Residual activity of CDK1/Cyclin A at 10 uM by microplate scintillation counting; type: protein-complex assay
[5] = target: Mitogen-activated protein kinase 8 (Homo sapiens) (UniProt P45983); test: Residual activity of JNK1 at 0.1 uM by microplate scintillation counting
[6] = target: Serine/threonine-protein kinase PLK1 (Homo sapiens) (UniProt P53350); test: Residual activity of PLK1 at 10 uM by microplate scintillation counting
[7] = target: T2, Beta-adrenergic receptor kinase 1 (Homo sapiens) (UniProt P25098); test: Residual activity of GRK2 at 10 uM by microplate scintillation counting
T2 sequence (whole entry): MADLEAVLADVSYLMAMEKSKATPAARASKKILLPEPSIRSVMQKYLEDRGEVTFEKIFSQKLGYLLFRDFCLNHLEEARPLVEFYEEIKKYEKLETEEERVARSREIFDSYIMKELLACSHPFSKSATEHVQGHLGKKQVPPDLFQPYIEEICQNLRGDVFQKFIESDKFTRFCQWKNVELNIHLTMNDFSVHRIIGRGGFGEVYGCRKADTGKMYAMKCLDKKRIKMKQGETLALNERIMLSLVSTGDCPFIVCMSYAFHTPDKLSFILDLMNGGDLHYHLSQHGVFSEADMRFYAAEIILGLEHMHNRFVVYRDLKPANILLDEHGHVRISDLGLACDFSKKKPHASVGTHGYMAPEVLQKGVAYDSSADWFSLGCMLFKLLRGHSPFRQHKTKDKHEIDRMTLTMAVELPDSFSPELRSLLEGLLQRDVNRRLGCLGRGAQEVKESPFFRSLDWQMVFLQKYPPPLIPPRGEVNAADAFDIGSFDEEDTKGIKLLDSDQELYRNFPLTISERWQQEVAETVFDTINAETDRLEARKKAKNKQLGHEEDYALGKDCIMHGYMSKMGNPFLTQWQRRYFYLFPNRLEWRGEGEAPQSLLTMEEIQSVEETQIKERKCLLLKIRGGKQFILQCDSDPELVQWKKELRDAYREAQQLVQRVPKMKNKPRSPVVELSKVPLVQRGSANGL

[8] = target: T3, Serine/threonine-protein kinase Nek11 (Homo sapiens) (UniProt Q8NG66); test: Residual activity of NEK11 at 10 uM by microplate scintillation counting
T3 sequence (whole entry): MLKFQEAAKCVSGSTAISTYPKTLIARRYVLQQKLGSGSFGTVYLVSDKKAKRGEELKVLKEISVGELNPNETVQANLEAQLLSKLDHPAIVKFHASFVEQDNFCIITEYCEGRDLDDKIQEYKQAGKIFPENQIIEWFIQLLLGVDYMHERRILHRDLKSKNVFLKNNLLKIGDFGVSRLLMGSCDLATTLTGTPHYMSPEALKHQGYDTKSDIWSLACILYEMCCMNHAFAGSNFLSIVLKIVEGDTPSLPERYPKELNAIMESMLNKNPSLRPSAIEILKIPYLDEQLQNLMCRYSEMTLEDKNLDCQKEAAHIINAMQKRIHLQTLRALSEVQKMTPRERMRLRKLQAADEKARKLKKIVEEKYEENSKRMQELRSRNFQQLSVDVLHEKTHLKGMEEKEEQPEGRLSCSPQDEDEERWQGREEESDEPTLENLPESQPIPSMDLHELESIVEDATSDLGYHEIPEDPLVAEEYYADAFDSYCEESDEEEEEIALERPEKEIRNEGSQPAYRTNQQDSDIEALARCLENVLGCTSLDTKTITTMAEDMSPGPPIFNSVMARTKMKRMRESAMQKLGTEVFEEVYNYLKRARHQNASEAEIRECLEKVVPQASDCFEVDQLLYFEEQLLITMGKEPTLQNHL

[9] = target: Protein kinase C beta type (Homo sapiens) (UniProt P05771); test: Residual activity of PKCbeta1 at 1 uM by microplate scintillation counting
Chain of Protein kinase C beta type (Homo sapiens) (P05771 2-671 limits assumed): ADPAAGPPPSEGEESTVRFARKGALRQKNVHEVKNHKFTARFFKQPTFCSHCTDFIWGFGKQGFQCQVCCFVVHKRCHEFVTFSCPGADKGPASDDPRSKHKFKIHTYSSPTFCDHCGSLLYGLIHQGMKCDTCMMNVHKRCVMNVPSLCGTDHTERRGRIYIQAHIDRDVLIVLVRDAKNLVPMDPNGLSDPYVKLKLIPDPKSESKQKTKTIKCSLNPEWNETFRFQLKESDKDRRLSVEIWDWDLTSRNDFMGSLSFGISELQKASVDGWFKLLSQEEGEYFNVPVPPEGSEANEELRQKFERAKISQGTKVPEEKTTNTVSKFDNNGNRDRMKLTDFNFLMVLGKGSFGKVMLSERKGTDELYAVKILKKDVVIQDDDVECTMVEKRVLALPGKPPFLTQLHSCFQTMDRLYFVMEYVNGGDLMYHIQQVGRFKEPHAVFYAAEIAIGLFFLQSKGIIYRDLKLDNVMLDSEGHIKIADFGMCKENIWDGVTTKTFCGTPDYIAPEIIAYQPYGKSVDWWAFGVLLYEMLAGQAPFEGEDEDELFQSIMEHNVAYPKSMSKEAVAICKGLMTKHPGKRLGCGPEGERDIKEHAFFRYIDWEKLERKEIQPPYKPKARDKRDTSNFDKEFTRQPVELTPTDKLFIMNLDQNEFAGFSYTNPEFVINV

Chain of Dual specificity tyrosine-phosphorylation-regulated kinase 1B (Homo sapiens) (Q9Y463 whole entry, looked up): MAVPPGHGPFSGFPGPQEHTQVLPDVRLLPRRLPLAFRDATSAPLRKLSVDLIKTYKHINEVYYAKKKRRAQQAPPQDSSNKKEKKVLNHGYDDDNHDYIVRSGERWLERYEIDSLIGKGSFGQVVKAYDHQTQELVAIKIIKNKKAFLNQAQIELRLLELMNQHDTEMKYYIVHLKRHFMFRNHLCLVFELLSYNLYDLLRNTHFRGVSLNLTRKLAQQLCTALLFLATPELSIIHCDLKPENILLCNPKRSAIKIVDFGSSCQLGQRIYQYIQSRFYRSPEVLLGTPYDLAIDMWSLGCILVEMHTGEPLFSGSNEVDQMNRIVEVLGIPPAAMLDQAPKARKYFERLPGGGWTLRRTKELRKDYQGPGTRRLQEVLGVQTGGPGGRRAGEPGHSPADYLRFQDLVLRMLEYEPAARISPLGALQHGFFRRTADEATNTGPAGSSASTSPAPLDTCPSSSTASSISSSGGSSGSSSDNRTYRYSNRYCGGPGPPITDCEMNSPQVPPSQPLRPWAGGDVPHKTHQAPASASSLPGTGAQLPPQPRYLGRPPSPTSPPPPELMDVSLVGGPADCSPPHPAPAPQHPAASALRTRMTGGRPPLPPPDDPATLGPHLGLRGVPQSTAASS
Chain of Mitogen-activated protein kinase 8 (Homo sapiens) (P45983 whole entry): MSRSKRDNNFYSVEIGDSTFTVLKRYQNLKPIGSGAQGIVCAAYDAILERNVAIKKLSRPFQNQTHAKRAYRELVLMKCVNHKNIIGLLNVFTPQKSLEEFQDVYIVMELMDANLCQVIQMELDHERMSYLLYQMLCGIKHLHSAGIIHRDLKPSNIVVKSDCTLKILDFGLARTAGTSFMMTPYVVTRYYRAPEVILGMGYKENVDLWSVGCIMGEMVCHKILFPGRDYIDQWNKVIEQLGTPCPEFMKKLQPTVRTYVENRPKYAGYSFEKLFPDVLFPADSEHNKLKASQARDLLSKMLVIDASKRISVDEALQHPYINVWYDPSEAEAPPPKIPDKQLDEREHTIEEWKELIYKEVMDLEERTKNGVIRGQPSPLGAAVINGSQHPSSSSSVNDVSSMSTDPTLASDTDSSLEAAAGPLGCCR
Chain of CDK1/Cyclin A (Homo sapiens) (P06493 whole entry, looked up): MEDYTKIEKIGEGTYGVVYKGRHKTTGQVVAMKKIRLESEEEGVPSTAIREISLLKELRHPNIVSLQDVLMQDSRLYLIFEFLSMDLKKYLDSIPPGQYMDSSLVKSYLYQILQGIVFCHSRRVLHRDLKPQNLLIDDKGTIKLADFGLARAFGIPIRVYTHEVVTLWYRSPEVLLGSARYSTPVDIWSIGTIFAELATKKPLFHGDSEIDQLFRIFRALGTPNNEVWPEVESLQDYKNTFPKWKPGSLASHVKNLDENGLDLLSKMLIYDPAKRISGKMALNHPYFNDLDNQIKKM
Chain of CDK1/Cyclin A (Homo sapiens) (P20248 whole entry, looked up): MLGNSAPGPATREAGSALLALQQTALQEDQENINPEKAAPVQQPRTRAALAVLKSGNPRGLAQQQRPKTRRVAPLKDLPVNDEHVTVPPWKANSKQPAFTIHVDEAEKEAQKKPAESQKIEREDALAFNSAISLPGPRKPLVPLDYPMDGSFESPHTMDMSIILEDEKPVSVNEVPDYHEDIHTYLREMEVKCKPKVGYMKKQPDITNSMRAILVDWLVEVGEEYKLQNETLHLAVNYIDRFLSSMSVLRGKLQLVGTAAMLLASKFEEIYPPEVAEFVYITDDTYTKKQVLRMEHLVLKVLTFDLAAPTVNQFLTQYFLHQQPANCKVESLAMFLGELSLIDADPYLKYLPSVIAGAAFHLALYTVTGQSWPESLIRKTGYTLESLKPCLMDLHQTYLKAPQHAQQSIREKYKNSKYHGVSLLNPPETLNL
Chain of CDC42BPA protein (Homo sapiens) (B9EGA7 as listed by the source): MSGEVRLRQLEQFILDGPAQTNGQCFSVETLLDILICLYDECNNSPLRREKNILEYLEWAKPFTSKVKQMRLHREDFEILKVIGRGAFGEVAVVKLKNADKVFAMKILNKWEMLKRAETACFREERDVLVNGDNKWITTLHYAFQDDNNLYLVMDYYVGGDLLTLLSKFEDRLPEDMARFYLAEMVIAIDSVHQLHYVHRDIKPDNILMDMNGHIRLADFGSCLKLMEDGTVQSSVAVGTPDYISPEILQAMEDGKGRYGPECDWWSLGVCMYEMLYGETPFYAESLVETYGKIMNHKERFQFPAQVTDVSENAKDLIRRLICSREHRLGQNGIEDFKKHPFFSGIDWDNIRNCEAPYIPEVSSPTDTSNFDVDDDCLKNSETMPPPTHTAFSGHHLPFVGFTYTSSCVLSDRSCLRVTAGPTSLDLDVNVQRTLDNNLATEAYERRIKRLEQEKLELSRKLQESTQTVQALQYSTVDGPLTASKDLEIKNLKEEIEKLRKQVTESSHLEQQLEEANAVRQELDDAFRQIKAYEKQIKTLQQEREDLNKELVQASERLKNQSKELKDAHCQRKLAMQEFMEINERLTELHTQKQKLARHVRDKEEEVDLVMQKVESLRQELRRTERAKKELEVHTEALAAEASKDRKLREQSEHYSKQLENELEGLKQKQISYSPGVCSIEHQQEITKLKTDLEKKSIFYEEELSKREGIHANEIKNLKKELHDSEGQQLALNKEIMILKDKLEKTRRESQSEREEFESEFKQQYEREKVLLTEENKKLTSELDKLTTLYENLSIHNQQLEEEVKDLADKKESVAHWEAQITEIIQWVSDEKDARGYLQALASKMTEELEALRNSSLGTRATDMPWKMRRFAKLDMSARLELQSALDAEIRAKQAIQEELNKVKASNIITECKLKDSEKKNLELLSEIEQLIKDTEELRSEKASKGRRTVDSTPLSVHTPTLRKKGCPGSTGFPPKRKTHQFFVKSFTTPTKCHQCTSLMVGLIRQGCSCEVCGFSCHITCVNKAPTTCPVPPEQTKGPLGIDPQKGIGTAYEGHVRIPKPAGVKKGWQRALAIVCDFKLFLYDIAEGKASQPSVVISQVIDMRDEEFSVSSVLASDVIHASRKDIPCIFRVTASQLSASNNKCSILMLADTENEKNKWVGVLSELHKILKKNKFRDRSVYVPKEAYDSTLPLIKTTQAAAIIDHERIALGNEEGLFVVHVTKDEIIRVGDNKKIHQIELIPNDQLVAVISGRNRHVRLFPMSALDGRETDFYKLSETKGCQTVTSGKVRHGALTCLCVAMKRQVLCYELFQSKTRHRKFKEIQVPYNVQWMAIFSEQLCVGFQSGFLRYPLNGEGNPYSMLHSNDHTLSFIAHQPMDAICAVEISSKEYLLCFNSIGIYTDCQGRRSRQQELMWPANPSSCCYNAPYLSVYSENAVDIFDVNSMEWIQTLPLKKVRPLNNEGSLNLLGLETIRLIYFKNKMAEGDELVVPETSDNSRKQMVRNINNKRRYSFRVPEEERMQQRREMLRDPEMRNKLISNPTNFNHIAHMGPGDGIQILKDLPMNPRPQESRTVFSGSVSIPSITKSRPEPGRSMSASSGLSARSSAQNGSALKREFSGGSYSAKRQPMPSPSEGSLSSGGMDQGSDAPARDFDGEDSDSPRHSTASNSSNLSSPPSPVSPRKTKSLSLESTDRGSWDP
Chain of Serine/threonine-protein kinase PLK1 (Homo sapiens) (P53350 whole entry): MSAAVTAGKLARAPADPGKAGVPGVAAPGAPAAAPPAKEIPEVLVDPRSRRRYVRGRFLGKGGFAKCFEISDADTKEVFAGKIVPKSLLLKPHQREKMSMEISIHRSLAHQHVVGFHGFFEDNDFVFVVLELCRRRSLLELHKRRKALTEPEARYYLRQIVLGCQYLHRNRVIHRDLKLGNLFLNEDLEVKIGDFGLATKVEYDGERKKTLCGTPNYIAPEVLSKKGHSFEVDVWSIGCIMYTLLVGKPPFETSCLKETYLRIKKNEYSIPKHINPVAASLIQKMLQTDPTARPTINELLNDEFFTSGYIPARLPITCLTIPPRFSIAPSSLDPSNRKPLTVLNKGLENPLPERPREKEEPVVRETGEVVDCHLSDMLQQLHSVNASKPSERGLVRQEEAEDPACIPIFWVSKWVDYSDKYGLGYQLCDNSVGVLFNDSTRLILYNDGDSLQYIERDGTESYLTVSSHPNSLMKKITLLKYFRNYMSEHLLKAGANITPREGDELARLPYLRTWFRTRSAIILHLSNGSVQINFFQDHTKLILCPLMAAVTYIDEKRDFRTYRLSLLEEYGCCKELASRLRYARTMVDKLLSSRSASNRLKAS

Row | residual activity [1] [%] | residual activity [2] [%] | residual activity [3] [%] | residual activity [4] [%] | residual activity [5] [%] | residual activity [6] [%] | residual activity [7] [%] | residual activity [8] [%] | residual activity [9] [%] | SMILES
1 | 117 | 104 | 18 | 129 | 98 | 134 | 58 | 113 | 108 | COc1cc2c(Oc3ccc(-c4nc5ccccc5s4)cc3)ncnc2cc1OCCCN1CCN(C)CC1
2 | 117 | 98 | 35 | 117 | 106 | 123 | 73 | 81 | 105 | COc1cc2c(Oc3ccc(-c4nc5ccccc5s4)cc3)ncnc2cc1OCCCN1CCCC1
3 | 89 | 89 | 16 | 112 | 101 | 100 | 53 | 83 | 103 | COc1cc2c(Oc3ccc(-c4nc5ccccc5s4)cc3F)ncnc2cc1OCCCN1CCN(C)CC1
